In US8895504B2, “Amylin derivatives” (priority 2008, dated 2014) one finds EC50 data, which are given here for five molecules.

This assay concerns the target T1, Amylin 3(a) receptor (human calcitonin receptor (CTa) and RAMP-3) (Homo sapiens, UniProt O60896+P30988).
T1 construct: expressed in transfected cells; host or cells: BHK570 cells, stably transfected with a CRE-luciferase reporter
The experiment in a line: Luciferase assay (III), BHK Amylin 3(a)//CRE-luc cells. It counts as cell-based. As to conditions: BHK cells with Amylin 3(a) receptor and CRE luciferase reporter, 4 hours incubation; read-out: Potency Luciferase. An excerpt:
It has previously been published (Poyner D R et al 2002, Pharmacological Reviews 54(2) 233-246) that activation of Amylin receptors (coexpression of Calcitonin receptor and receptor activity modifying peptides RAMPs) by Amylin leads to an increase in the intracellular concentration of cAMP. Consequently, transcription is activated at promoters containing multiple copies of the cAMP response element (CRE). It is thus possible to measure Amylin activity by use of a CRE luciferase reporter gene introduced into BHK cells also expressing an Amylin receptor.
2. Construction of an Amylin 3(a)/CRE-luc Cell Line
A BHK570 cell line stably transfected with the human calcitonin receptor (CTa) and a CRE-responsive luciferase reportergene. The cell line was further transfected with RAMP-3, using standard methods. This turns the Calcitonin receptor into an Amylin 3(a) receptor. Methotrexate, Neomycin, and Hygromycin are selection markers for luciferase, the Calcitonin receptor, and RAMP-3, respectively.
3. Amylin Luciferase Assay
To perform activity assays, BHK Amylin 3(a)//CRE-luc cells were seeded in white 96 well culture plates at a density of about 20,000 cells/well. The cells were in 100 μl growth medium (DMEM with 10% FBS, 1% Pen/Strep, 1 mM Na-pyruvate, 250 nM Methotrexate, 500 μg/ml Neomycin, and 400 μg/ml Hygromycin). After incubation overnight at 37° C. and 5% CO2, the growth medium was replaced by 50 μl/well assay medium (DMEM (without phenol red), Glumamax™, 10% FBS, and 10 mM Hepes, pH 7,4). Further, 50 μl/well of standard or sample in assay buffer were added. After 4 hours incubation at 37° C. and 5% CO2, the assay medium with standard or sample were removed and replaced by 100 μl/well PBS. Further, 100 μl/well LucLite™ was added. The plates were sealed and incubated at room temperature for 30 minutes. Finally, luminescence was measured on a TopCounter (Packard) in SPC (single photon counting) mode.
(In general: In a reporter assay the amount or activity of a reporter protein is the signal.)

Each structure is given as a SMILES string. *1 amine or outer side, *2 acyl side, *3 side chain or, on linkers, in order; H or OH if unused. Where a SMILES comes first, the peptide text is derived from it. Bridges are numbered along the chain shown (N, C = ends). The star is where a group is joined. C20 diacid = O=C(O)CCCCCCCCCCCCCCCCCCC(=O)*; γGlu = O=C(O)[C@H](CCC(=O)[*:2])N[*:1]

T1 sequence (O60896 24-148): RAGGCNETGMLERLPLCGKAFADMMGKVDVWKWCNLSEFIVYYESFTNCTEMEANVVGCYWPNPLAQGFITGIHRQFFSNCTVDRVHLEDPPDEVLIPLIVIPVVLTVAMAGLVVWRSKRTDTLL
T1 sequence (P30988 25-474): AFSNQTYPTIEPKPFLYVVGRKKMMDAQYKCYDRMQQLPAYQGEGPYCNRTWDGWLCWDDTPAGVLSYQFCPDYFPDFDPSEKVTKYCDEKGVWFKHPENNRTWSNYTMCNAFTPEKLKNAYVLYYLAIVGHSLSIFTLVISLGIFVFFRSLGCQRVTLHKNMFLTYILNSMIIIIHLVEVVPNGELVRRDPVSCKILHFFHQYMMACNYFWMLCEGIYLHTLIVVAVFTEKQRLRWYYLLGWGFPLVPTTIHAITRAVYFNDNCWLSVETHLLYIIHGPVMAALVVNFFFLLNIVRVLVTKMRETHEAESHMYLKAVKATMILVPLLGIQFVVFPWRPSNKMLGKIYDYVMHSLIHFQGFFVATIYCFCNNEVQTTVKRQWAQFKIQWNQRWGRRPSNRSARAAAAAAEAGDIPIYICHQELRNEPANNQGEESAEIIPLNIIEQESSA

For the molecule `CC[C@H](C)[C@H](NC(=O)[C@@H]1CCCN1C(=O)CNC(=O)[C@H](Cc1ccccc1)NC(=O)[C@H](CC(N)=O)NC(=O)[C@H](CC(N)=O)NC(=O)[C@H](CO)NC(=O)[C@H](CO)NC(=O)[C@H](Cc1c[nH]cn1)NC(=O)[C@H](CO)NC(=O)[C@H](CC(C)C)NC(=O)[C@H](Cc1ccccc1)NC(=O)[C@H](CC(N)=O)NC(=O)[C@H](C)NC(=O)[C@H](CC(C)C)NC(=O)[C@H](CCCNC(=N)N)NC(=O)[C@H](CCC(N)=O)NC(=O)[C@@H](NC(=O)[C@H](C)NC(=O)[C@@H]1CSSC[C@H](NC(=O)CC[C@H](NC(=O)CCCCCCCCCCCCCCCCCCC(=O)O)C(=O)O)C(=O)N[C@@H](CC(N)=O)C(=O)N[C@@H]([C@@H](C)O)C(=O)N[C@@H](C)C(=O)N[C@@H]([C@@H](C)O)C(=O)N1)[C@@H](C)O)C(=O)N[C@@H](CC(C)C)C(=O)N1CCC[C@H]1C(=O)N1CCC[C@H]1C(=O)N[C@H](C(=O)N[C@@H](CC(N)=O)C(=O)N[C@H](C(=O)NCC(=O)N[C@@H](CO)C(=O)N[C@@H](CC(N)=O)C(=O)N[C@H](C(=O)N[C@@H](Cc1ccc(O)cc1)C(N)=O)[C@@H](C)O)C(C)C)[C@@H](C)O` [Example 11, N-alpha-[(S)-4-Carboxy-4-(19-carboxynonadecanoylamino)butyryl]-[Ser17]-pramlintide (2-37)] ({C20 diacid-γGlu}-CNTATCATQRLANFLSHSSNNFGPILPPTNVGSNTY-NH2; disulfide 1-6), the EC50 was 0.1 nM.
Consider `CC[C@H](C)[C@H](NC(=O)[C@@H]1CCCN1C(=O)CNC(=O)[C@H](Cc1ccccc1)NC(=O)[C@H](CC(N)=O)NC(=O)[C@H](CC(N)=O)NC(=O)[C@H](CO)NC(=O)[C@H](CO)NC(=O)[C@H](Cc1c[nH]cn1)NC(=O)[C@H](C)NC(=O)[C@H](CC(C)C)NC(=O)[C@H](Cc1ccccc1)NC(=O)[C@H](CC(N)=O)NC(=O)[C@H](C)NC(=O)[C@H](CC(C)C)NC(=O)[C@H](CCCNC(=N)N)NC(=O)[C@H](CCC(N)=O)NC(=O)[C@@H](NC(=O)[C@H](C)NC(=O)[C@@H]1CSSC[C@H](NC(=O)CC[C@H](NC(=O)CCCCCCCCCCCCCCCCCCC(=O)O)C(=O)O)C(=O)N[C@@H](CC(N)=O)C(=O)N[C@@H]([C@@H](C)O)C(=O)N[C@@H](C)C(=O)N[C@@H]([C@@H](C)O)C(=O)N1)[C@@H](C)O)C(=O)N[C@@H](CC(C)C)C(=O)N1CCC[C@H]1C(=O)N1CCC[C@H]1C(=O)N[C@H](C(=O)N[C@@H](CC(N)=O)C(=O)N[C@H](C(=O)NCC(=O)N[C@@H](CO)C(=O)N[C@@H](CC(N)=O)C(=O)N[C@H](C(=O)N[C@@H](Cc1ccc(O)cc1)C(N)=O)[C@@H](C)O)C(C)C)[C@@H](C)O` [Example 12, N-alpha-[(S)-4-Carboxy-4-(19-carboxynonadecanoylamino)butyryl]-[Ala17]-pramlintide (2-37)] ({C20 diacid-γGlu}-CNTATCATQRLANFLAHSSNNFGPILPPTNVGSNTY-NH2; disulfide 1-6), for which the EC50 stood at 0.1 nM.
With `CC[C@H](C)[C@H](NC(=O)[C@@H]1CCCN1C(=O)CNC(=O)[C@H](Cc1ccccc1)NC(=O)[C@H](CC(N)=O)NC(=O)[C@H](CC(N)=O)NC(=O)[C@H](CO)NC(=O)[C@H](CO)NC(=O)[C@H](Cc1c[nH]cn1)NC(=O)CNC(=O)[C@H](CC(C)C)NC(=O)[C@H](Cc1ccccc1)NC(=O)[C@H](CC(N)=O)NC(=O)[C@H](C)NC(=O)[C@H](CC(C)C)NC(=O)[C@H](CCCNC(=N)N)NC(=O)[C@H](CCC(N)=O)NC(=O)[C@@H](NC(=O)[C@H](C)NC(=O)[C@@H]1CSSC[C@H](NC(=O)CC[C@H](NC(=O)CCCCCCCCCCCCCCCCCCC(=O)O)C(=O)O)C(=O)N[C@@H](CC(N)=O)C(=O)N[C@@H]([C@@H](C)O)C(=O)N[C@@H](C)C(=O)N[C@@H]([C@@H](C)O)C(=O)N1)[C@@H](C)O)C(=O)N[C@@H](CC(C)C)C(=O)N1CCC[C@H]1C(=O)N1CCC[C@H]1C(=O)N[C@H](C(=O)N[C@@H](CC(N)=O)C(=O)N[C@H](C(=O)NCC(=O)N[C@@H](CO)C(=O)N[C@@H](CC(N)=O)C(=O)N[C@H](C(=O)N[C@@H](Cc1ccc(O)cc1)C(N)=O)[C@@H](C)O)C(C)C)[C@@H](C)O` [Example 13, N-alpha-[(S)-4-Carboxy-4-(19-carboxynonadecanoylamino)butyryl]-[Gly17]-pramlintide (2-37)] ({C20 diacid-γGlu}-CNTATCATQRLANFLGHSSNNFGPILPPTNVGSNTY-NH2; disulfide 1-6), the EC50 was 0.4 nM.
Take `CC[C@H](C)[C@H](NC(=O)[C@@H]1CCCN1C(=O)CNC(=O)[C@H](Cc1ccccc1)NC(=O)[C@H](CC(N)=O)NC(=O)[C@H](CC(N)=O)NC(=O)[C@H](CO)NC(=O)[C@H](CO)NC(=O)[C@H](Cc1c[nH]cn1)NC(=O)[C@H](CCCNC(=N)N)NC(=O)[C@H](CC(C)C)NC(=O)[C@H](Cc1ccccc1)NC(=O)[C@H](CC(N)=O)NC(=O)[C@H](C)NC(=O)[C@H](CC(C)C)NC(=O)[C@H](CCCNC(=N)N)NC(=O)[C@H](CCC(N)=O)NC(=O)[C@@H](NC(=O)[C@H](C)NC(=O)[C@@H]1CSSC[C@H](NC(=O)CC[C@H](NC(=O)CCCCCCCCCCCCCCCCCCC(=O)O)C(=O)O)C(=O)N[C@@H](CC(N)=O)C(=O)N[C@@H]([C@@H](C)O)C(=O)N[C@@H](C)C(=O)N[C@@H]([C@@H](C)O)C(=O)N1)[C@@H](C)O)C(=O)N[C@@H](CC(C)C)C(=O)N1CCC[C@H]1C(=O)N1CCC[C@H]1C(=O)N[C@H](C(=O)N[C@@H](CC(N)=O)C(=O)N[C@H](C(=O)NCC(=O)N[C@@H](CO)C(=O)N[C@@H](CC(N)=O)C(=O)N[C@H](C(=O)N[C@@H](Cc1ccc(O)cc1)C(N)=O)[C@@H](C)O)C(C)C)[C@@H](C)O` [Example 14, N-alpha-[(S)-4-Carboxy-4-(19-carboxynonadecanoylamino)butyryl]-[Arg17]-pramlintide (2-37)] ({C20 diacid-γGlu}-CNTATCATQRLANFLRHSSNNFGPILPPTNVGSNTY-NH2; disulfide 1-6): the EC50 is 0.2 nM.
For `CC[C@H](C)[C@H](NC(=O)[C@@H]1CCCN1C(=O)CNC(=O)[C@H](Cc1ccccc1)NC(=O)[C@H](CC(N)=O)NC(=O)[C@H](CC(N)=O)NC(=O)[C@H](CO)NC(=O)[C@H](CO)NC(=O)[C@H](Cc1c[nH]cn1)NC(=O)[C@@H]1CCCN1C(=O)[C@H](CC(C)C)NC(=O)[C@H](Cc1ccccc1)NC(=O)[C@H](CC(N)=O)NC(=O)[C@H](C)NC(=O)[C@H](CC(C)C)NC(=O)[C@H](CCCNC(=N)N)NC(=O)[C@H](CCC(N)=O)NC(=O)[C@@H](NC(=O)[C@H](C)NC(=O)[C@@H]1CSSC[C@H](NC(=O)CC[C@H](NC(=O)CCCCCCCCCCCCCCCCCCC(=O)O)C(=O)O)C(=O)N[C@@H](CC(N)=O)C(=O)N[C@@H]([C@@H](C)O)C(=O)N[C@@H](C)C(=O)N[C@@H]([C@@H](C)O)C(=O)N1)[C@@H](C)O)C(=O)N[C@@H](CC(C)C)C(=O)N1CCC[C@H]1C(=O)N1CCC[C@H]1C(=O)N[C@H](C(=O)N[C@@H](CC(N)=O)C(=O)N[C@H](C(=O)NCC(=O)N[C@@H](CO)C(=O)N[C@@H](CC(N)=O)C(=O)N[C@H](C(=O)N[C@@H](Cc1ccc(O)cc1)C(N)=O)[C@@H](C)O)C(C)C)[C@@H](C)O` [Example 15, N-alpha-[(S)-4-Carboxy-4-(19-carboxynonadecanoylamino)butyryl]-[Pro17]-pramlintide (2-37)] ({C20 diacid-γGlu}-CNTATCATQRLANFLPHSSNNFGPILPPTNVGSNTY-NH2; disulfide 1-6), the EC50 was found to be 8 nM.
